Assay results published in patent US12398153B2, “Spiro compound serving as ERK inhibitor, and application thereof” (D3 BIO (WUXI) CO., LTD., priority 2019, dated 2025).
Read-outs that look alike come from different tables or passages of the source.

How the values were obtained:
[1] = system: HT29 tumor cells; test: In vitro cell proliferation inhibition assay (CellTiterGlo); type: cell-based
Procedure: Assay Example 2. In Vitro Cell Proliferation Inhibition Assay
The ability of compounds to inhibit the proliferation of HT29 tumor cells was measured.
The assay compound was dissolved in 100% DMSO to prepare 10 mM stock solution.
• 1) UV light of a biological safety cabin was turned on, and 30 minutes were counted down; • 2) In a 37° C. water bath, RPMI1640 medium and trypsin were preheated; • 3) After completion of the UV irradiation, the biological safety cabin was opened. The preheated medium, trypsin and phosphate buffered saline (PBS), etc. were wiped with alcohol and placed in the biological safety cabin; • 4) HT29 cells were removed from the incubator, and the old medium was removed in biological safety cabin. 10 ml of PBS was added. The mixture was shaken gently, and then PBS was removed; • 5) 1.5 ml of preheated 0.25% trypsin was added. The culture vessel was shaken horizontally so that the trypsin evenly covered the cells at the bottom, and placed in an incubator for 2 minutes; • 6) Cell digestion was stopped with complete medium, and the cell suspension was pipetted to homogeneity and counted; • 7) According to the result of cell counting, the density of cell suspension was adjusted to 1500 cells per well, and the cell suspension was seeded at 50 μl per well; • 8) The stock solution of compounds was serially diluted in DMSO solution, and compounds were added to cell plate using Tecan;
9) The compound-added cell plate and CellTiterGlo were equilibrated at room temperature, and 25 microliters of CellTiterGlo was then added to each well. The cell plate was shaken for 1-2 minutes and then allowed to stand for 10 minutes. The signal value was then detected. The data were analyzed using XL-Fit, and the IC50 of each compound was calculated.

[2] = molecular target: ERK2 kinase (Homo sapiens (Human), UniProt P28482); test: Assay of in vitro kinase activity (33P-ATP filter-binding, MBP substrate); type: biochemical
Procedure: Assay Example 1. Assay of In Vitro Kinase Activity
The ability of compounds to inhibit ERK2 kinase activity was measured.
20 mM Hepes (pH 7.5), 10 mM MgCl2, 1 mM ethylenebis(oxyethylenenitrilo)tetraacetic acid (EGTA), 0.02% Brij35, 0.02 mg/mL bovine serum albumin (BSA), 0.1 mM Na3VO4, 2 mM dithiothreitol (DTT), 1% DMSO.
The assay compound was dissolved in 100% DMSO to prepare a stock solution of specific concentration. The compound was serially diluted in DMSO solution using Integra Viaflo Assist smart pipette.
• 1) The substrate MBP was prepared in freshly prepared reaction buffer; • 2) ERK2 kinase was added to the above-mentioned MBP solution and mixed gently; • 3) The compound dissolved in 100% DMSO was added to the kinase reaction system using ultrasound technology (Echo550; nanoliter range), and the mixture was incubated at room temperature for 20 minutes; • 4) ^33P-ATP (specific concentration of […]) was added to the reaction system, and the reaction was started at this time; • 5) The mixture was incubated at room temperature for 2 hours; • 6) The amount of radioactivity was detected by filter-binding method; • 7) ERK2 kinase activity was calculated as the ratio of the remaining kinase activity in the assay sample to the kinase activity of the control group (treated by DMSO). Curve was fitted using Prism (GraphPad software) and IC50 values were calculated. 5.

[3] = In vivo DMPK assay in mouse; settings: female BALB/c mice; for Oral DNAUC (AUCPO/Dose) / Cmax: 3 mg/kg orally; for clearance / Vd / bioavailability / half-life / Cmax: mouse, plasma; for clearance / Vd: iv, 1 mg/kg intravenously; for clearance: read-out: Cl (clearance rate); for Vd: read-out: Vdss (distribution volume); for bioavailability / Cmax: po; for bioavailability: 1 mg/kg intravenously and 3 mg/kg orally, read-out: F % (oral bioavailability); for half-life: single administration, read-out: T1/2 (half-life) (converted); for Cmax: read-out: Cmax (maximum concentration)
Source text: Assay Example 3. Assay of In Vivo DMPK
In vivo DMPK assay in mouse
Female BALB/c mice were used as assay animals to determine the blood concentration of compounds and evaluate the pharmacokinetic behavior after a single administration.
Eight healthy adult female BALB/c mice were selected, wherein 4 mice were in the intravenous injection group and 4 mice were in the oral group. The vehicle in the intravenous injection group was 5% DMSO+95% (20% HP-β-CD). The compound to be assayed was mixed with an appropriate amount of vehicle for intravenous injection, vortexed and sonicated to prepare a clear solution of 0.5 mg/mL. The clear solution was filtered by a microporous membrane, and then ready for use. The vehicle in the oral group was 5% DMSO+95% (20% HP-β-CD). The compound to be assayed was mixed with the vehicle, vortexed and sonicated to prepare a solution of 0.3 mg/mL. Mice were administered 1 mg/kg intravenously or 3 mg/kg orally, and then whole blood was collected for a certain period. Plasma was prepared. The drug concentration was analyzed by LC-MS/MS method, and the pharmacokinetic parameters were calculated by Phoenix WinNonlin software (Pharsight, USA).
Note: DMSO: dimethyl sulfoxide; HP-β-CD: hydroxypropyl-β-cyclodextrin.

[4] = system: human colon cancer HCT-116 cells; test: In vivo efficacy, subcutaneous xenograft tumor of human colon cancer HCT-116 cells in BALB/c nude mouse; settings: 15 mg/kg, PO, QD
Procedure: Assay Example 4. Assay of In Vivo Efficacy of Subcutaneous Xenograft Tumor of Human Colon Cancer HCT-116 Cells in BALB/c Nude Mouse Model
The anti-tumor effect of WX007 was evaluated using a subcutaneous xenograft tumor model of human colon cancer HCT-116 cells in nude mouse.
• Species: mouse • Strain: BALB/c nude mouse • Age: 6-8 weeks old • Gender: female • Weight: 17-23 grams • Vendor: Laboratory Animal Management Department, Shanghai Institute for Biomedical and Pharmaceutical Technologies • Animal certificate number: 20180006020214 3. Assay Procedure: • 1) Assay cells and culture: Human colon cancer HCT-116 cells were cultured in monolayer in vitro. […] When the cell saturation was 80%-90% and the amount reached the requirement, the cells were harvested, counted, and inoculated; • 2) Tumor tissue inoculation and grouping: 0.2 mL (5×10^6) of HCT-116 cells were subcutaneously inoculated into the right armpit of each mouse. […]
• 3) Daily observation of assay animals: The development of this assay protocol and any modifications were evaluated and approved by the Institutional Animal Care and Use Committee (IACUC). […] Animals were monitored daily for health and death. […] The compound was formulated once a week. • 5) Tumor measurement and assay indicator: • a) Tumor diameter was measured twice a week with a vernier caliper. […]

Sequence of ERK2 kinase (P28482 whole entry): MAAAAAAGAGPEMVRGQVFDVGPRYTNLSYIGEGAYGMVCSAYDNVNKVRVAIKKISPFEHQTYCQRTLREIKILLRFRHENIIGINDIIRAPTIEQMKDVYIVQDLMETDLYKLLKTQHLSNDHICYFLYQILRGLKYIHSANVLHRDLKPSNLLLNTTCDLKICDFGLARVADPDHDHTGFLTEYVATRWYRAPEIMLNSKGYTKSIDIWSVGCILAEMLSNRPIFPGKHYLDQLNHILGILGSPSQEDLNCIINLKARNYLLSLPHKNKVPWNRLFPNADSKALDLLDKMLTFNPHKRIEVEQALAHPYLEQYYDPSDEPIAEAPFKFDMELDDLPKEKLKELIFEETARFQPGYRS

Compound | IC50 ([1]; Homo sapiens, HT-29) | IC50 [2] | Oral DNAUC (AUCPO/Dose) [3] | clearance [3] | Vd [3] | bioavailability [3] | half-life [3] | Cmax [3] | IC50 [1] | TGI (inhibition rate of tumor growth) ([4]; 18th day, HCT-116 xenograft in nude mouse) | Body weight of assay animals ([4]; to the 18th day)
Cn1nccc1Nc1nccc(-c2nc3c(s2)C2(COC2)N(Cc2cccc(Cl)c2)C3=O)n1 [WX005] | 49 nM | 0.36 nM |  |  |  |  |  |  |  |  | 
Cn1nccc1Nc1nccc(-c2nc3c(s2)C2(COC2)N(Cc2cccc(F)c2)C3=O)n1 [WX004] | 125 nM | 1.1 nM |  |  |  |  |  |  |  |  | 
O=C1c2nc(-c3ccnc(NC4CCOCC4)n3)sc2C2(CCOCC2)N1Cc1cccc(Cl)c1 [WX003] | 69 nM | 0.29 nM |  |  |  |  |  |  |  |  | 
Cn1nccc1Nc1nccc(-c2nc3c(s2)[C@@]2(CCOC2)N(Cc2cccc(Cl)c2)C3=O)n1 [WX001A] |  | 0.31 nM |  |  |  |  |  |  | 21 nM |  | 
Cn1nccc1Nc1nccc(-c2nc3c(s2)C2(CCOCC2)N(Cc2cccc(Cl)c2)C3=O)n1 [WX002] | 73 nM | 0.4 nM |  |  |  |  |  |  |  |  | 

Now from value to compound, other results behind:

IC50 ([1]; Homo sapiens, HT-29) | IC50 [2] | Oral DNAUC (AUCPO/Dose) [3] | clearance [3] | Vd [3] | bioavailability [3] | half-life [3] | Cmax [3] | Compound | IC50 [1] | TGI (inhibition rate of tumor growth) ([4]; 18th day, HCT-116 xenograft in nude mouse) | Body weight of assay animals ([4]; to the 18th day)
14 nM | 0.94 nM | 1356 nM · h/mpk | 1.03 L/h/kg | 1.7 L/kg | 70% | 1.4 h | 1.4 µM | Cc1cnc(Nc2ccnn2C)nc1-c1nc2c(s1)C1(COC1)N(Cc1cccc(F)c1)C2=O [WX006] |  |  | 
11 nM | 0.48 nM | 1086 nM · h/mpk | 0.864 L/h/kg | 1.7 L/kg | 46% | 1.3 h | 0.595 µM | Cc1cnc(Nc2ccnn2C)nc1-c1nc2c(s1)C1(COC1)N(Cc1cccc(Cl)c1)C2=O [WX007] |  | 62% | did not decrease significantly
